Data from US11866405B2, “Substituted indazoles as IRAK4 inhibitors” (AstraZeneca AB, priority 2020, dated 2024).
Read-outs that look alike come from different tables or passages of the source.

What was measured:
[1] = tested on: human PBMCs stimulated with IL-1β; experiment: IL-1β-induced cytokine release in human PBMCs; type: cell-based; details: PBMC, 1 ng/mL IL-1β, 20 h
Description: (§1) In Vitro Effect of IRAK4 Inhibitors on LPS- and IL-1β-Induced Cytokine Release in Human PBMCs
(§2) To evaluate the effect and potency of IRAK4 inhibitors on blocking disease-relevant pathways in human primary immune cells, we stimulated human PBMCs (peripheral blood mononuclear cells) with LPS (TLR4 agonist) or IL-1β (IL-1R ligand) and measured the release of the proinflammatory cytokines IL-6 and TNF-α. Briefly, PBMCs were isolated from human blood, donated from healthy individuals, using LymphoPrep density gradient and plated at a cell density of 200 000 cells/well (for LPS assay) or 300 000 cells/well (for IL-1β assay) in 96-well culture plates. Cells were incubated for 1 h with serial dilutions of IRAK4 inhibitor or vehicle (DMSO) prior to stimulation of cells with 0.11 ng/mL LPS (derived from E. coli) or 1 ng/mL recombinant human IL-1β. After 4 h of LPS stimulation or 20 h of […] stimulation, the supernatant was collected and the levels of the proinflammatory cytokines TNF-α, IL-8 and IL-6 were measured by Mesoscale Discovery (MSD) multiplex assay. Dose-response curves were plotted and IC50 values were calculated with 4-parameter curve fit using GraphPad Prism 8 (see Table 3).

[2] = biological target: human recombinant IRAK4 protein (Homo sapiens (Human), UniProt Q9NWZ3); experiment: IRAK4 enzyme assay (mass spectrometry readout); type: biochemical; details: 3 mM ATP, 0.2 nM enzyme; geometric mean of at least n=2, * single experiment
How it was run: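 0.2 nM IRAK4 preincubated 15 min at room temperature with compound (10-point half-log series, top 1 μM or 10 μM) in pH 7.4 Tris buffer with 3 mM ATP; 10 μM peptide substrate added, 2 h at room temperature, formic acid stop. Phospho/unphospho peptide ratio by LC-MS/MS; potency from curve fit, geometric mean of n≥2 or single run.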

[3] = tested on: LPS-induced lung inflammation; experiment: Mouse model of LPS-induced airway inflammation; type: in vivo; details: mice, 5, 15 and 50 mg/kg oral, inhaled LPS 1 mg/mL, 4 h after challenge
Procedure: FIG. 1. In vivo dose response of Example 89 in an acute mouse model of LPS-induced lung inflammation. Example 89 compound was dosed orally to mice 1 h prior to inhaled LPS challenge (1 mg/mL). 4 h after the challenge, the animals were terminated and the levels of IL-6 and TNF-α released in the bronchoalveolar lavage fluid were measured. […] Individual data points represent individual animals, and bars represent the mean value of each group. Statistical differences between groups were calculated with a one-way ANOVA test comparing treatment groups to the vehicle group. **p<0.01, ***p<0.001. The ability of IRAK4 inhibitors according to the specification to reduce inflammatory cytokines and TNF-α in vivo is thus established.
In Vivo Effect of IRAK4 Inhibition in a Mouse Model of LPS-Induced Airway Inflammation
TLRs act as a first sensor of microbes and allergens in the airways and can mediate a rapid inflammatory response. A mouse model of inhaled LPS challenge was used to study the effect of IRAK4 inhibition on the processes of an acute TLR4-driven airway inflammation. […] The levels of proinflammatory cytokines were measured in the BALF supernatant using MSD multiplex assay 8 mice per treatment group were used, except for the LPS/vehicle group where 20 mice were used. […]

[4] = tested on: human PBMCs stimulated with LPS; experiment: LPS-induced cytokine release in human PBMCs; type: cell-based; details: PBMC, 0.11 ng/mL LPS, 4 h
Description: as §1, §2

Chain of human recombinant IRAK4 protein (Q9NWZ3 whole entry): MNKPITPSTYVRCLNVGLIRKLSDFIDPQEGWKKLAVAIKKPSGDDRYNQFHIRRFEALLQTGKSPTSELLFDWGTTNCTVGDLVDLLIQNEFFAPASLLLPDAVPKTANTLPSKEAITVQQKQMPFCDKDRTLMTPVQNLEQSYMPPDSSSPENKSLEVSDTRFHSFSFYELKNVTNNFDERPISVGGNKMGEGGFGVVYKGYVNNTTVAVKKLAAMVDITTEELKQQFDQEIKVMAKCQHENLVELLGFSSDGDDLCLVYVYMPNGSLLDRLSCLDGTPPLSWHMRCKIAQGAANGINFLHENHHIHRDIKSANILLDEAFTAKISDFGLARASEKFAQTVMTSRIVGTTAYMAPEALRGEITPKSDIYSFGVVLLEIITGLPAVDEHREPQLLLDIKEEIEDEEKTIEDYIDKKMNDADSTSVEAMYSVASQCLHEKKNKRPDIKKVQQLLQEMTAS

Q: How did the IC50 ([1]; read-out: IC50, IL-6 read-out, IL-1β stimulation) turn out when `COc1cc2nn([C@@H]3CC[C@@H](O)C[C@H]3C)cc2cc1C(=O)Nc1cnc2cccnn12` [Example 89, 2-((1R,2R,4R)-4-hydroxy-2-methylcyclohexyl)-N-(imidazo[1,2-b]pyridazin-3-yl)-6-methoxy-2H-indazole-5-carboxamide] was run?
A: 22 nM

Q: And the IC50 ([1]; read-out: IC50, IL-8 read-out, IL-1β stimulation)?
A: 30 nM

Q: What about the IC50 [2] of the same molecule?
A: 1.1 nM

Q: What about the “levels of IL-6 in bronchoalveolar lavage fluid” value [3] of the same molecule?
A: reduced the levels of IL-6 and TNF-α upon inhaled LPS challenge, in a dose-dependent manner

Q: What about the “levels of TNF-α in bronchoalveolar lavage fluid” value [3] of the same molecule?
A: reduced the levels of IL-6 and TNF-α upon inhaled LPS challenge, in a dose-dependent manner

Q: And the IC50 ([4]; read-out: IC50, IL-6 read-out, LPS stimulation)?
A: 32 nM

Q: What about the IC50 ([4]; read-out: IC50, TNF-α read-out, LPS stimulation) of the same molecule?
A: 39 nM
